According to patent US20210253575A1, “PYRROLIDINE AMINE COMPOUNDS FOR THE TREATMENT OF AUTOIMMUNE DISEASE” (Hoffmann-La Roche Inc., priority 2018, published 2021):

Each compound was assayed against T1, human TLR8 (Homo sapiens, UniProt Q9NR97) (assay: HEK293-Blue-hTLR-8 cells assay (SEAP reporter, R848 stimulation)). Conditions: HEK293-Blue-hTLR8 cells, R848 ligand, 20 hrs incubation.
T1 sequence (Q9NR97 27-1041): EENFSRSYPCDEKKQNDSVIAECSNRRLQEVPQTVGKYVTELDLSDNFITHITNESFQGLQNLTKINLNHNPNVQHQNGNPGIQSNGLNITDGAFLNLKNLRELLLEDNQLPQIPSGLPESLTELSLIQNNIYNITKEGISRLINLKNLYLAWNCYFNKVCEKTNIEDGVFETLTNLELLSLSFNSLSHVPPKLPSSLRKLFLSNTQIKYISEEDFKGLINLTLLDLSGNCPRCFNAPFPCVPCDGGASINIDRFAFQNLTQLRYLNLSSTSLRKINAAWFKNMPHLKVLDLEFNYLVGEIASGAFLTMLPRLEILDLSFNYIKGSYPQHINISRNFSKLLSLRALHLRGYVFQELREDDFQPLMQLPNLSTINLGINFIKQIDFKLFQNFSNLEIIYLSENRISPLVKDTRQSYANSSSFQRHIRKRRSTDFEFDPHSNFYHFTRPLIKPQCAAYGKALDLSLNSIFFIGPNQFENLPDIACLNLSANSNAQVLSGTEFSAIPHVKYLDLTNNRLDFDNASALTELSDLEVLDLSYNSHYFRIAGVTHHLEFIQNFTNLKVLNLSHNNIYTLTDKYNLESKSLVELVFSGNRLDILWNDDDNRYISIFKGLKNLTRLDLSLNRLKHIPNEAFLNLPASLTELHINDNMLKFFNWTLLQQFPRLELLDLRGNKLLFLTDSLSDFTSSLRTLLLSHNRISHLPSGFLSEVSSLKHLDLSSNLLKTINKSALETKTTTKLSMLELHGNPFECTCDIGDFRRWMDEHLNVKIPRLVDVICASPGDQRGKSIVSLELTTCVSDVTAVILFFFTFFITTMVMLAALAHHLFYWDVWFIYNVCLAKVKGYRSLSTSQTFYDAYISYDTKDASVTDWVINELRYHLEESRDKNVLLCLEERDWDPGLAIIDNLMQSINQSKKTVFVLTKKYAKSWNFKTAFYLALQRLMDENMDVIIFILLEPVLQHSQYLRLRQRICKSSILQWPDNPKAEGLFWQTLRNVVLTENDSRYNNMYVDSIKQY
Type: cell-based
Summary of the method: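 Antagonism was measured in HEK293-Blue-hTLR8 cells with an NF-κB/AP-1-driven SEAP reporter. Cells were stimulated with R848 (10 μL of 60 uM stock) alongside compound (1% DMSO) for 20 hrs at 37° C. Supernatant SEAP was read with QUANTI-Blue after 2 hrs, absorbance at 620-655 nm.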

First: N#Cc1ccc(N2CC(CN3CCNCC3)C3(CC3)C2)c2nccnc12 (centres unmarked) [Example 3, 8-[7-(piperazin-1-ylmethyl)-5-azaspiro[2.4]heptan-5-yl]quinoxaline-5-carbonitrile]
Second: N#Cc1ccc(N2CC(CN3CC4CCC(C3)C4N)C3(CC3)C2)c2nccnc12 (centres unmarked) [Example 4, 8-[7-[(8-Amino-3-azabicyclo[3.2.1]octan-3-yl)methyl]-5-azaspiro[2.4]heptan-5-yl]quinoxaline-5-carbonitrile]
The IC50 of the first is 3.2-fold lower: 12 nM for the first, 38 nM for the second.

`CN(C)[C@@H]1CCN(C[C@H]2CN(c3ccc(C#N)c4nccnc34)C[C@@H]2C(F)(F)F)C1` [Example 83, 8-[(3S,4R)-3-[[(3R)-3-(dimethylamino)pyrrolidin-1-yl]methyl]-4-(trifluoromethyl)pyrrolidin-1-yl]quinoxaline-5-carbonitrile] and `CC1(CN)CCN(C[C@H]2CN(c3ccc(C#N)c4nccnc34)C[C@@H]2C(F)(F)F)C1` (stereo partly drawn) [Example 85, 8-[(3S,4R)-3-[[3-(aminomethyl)-3-methyl-pyrrolidin-1-yl]methyl]-4-(trifluoromethyl)pyrrolidin-1-yl]quinoxaline-5-carbonitrile] are within 1.5-fold of each other in IC50: 65 nM for the first, 75 nM for the second.

`CN1CCC2(CCN(C[C@H]3CN(c4ccc(C#N)c5nccnc45)C[C@@H]3C(F)(F)F)C2)C1` (stereo partly drawn) [Example 84, 8-[(3S,4R)-3-[(7-methyl-2,7-diazaspiro[4.4]nonan-2-yl)methyl]-4-(trifluoromethyl)pyrrolidin-1-yl]quinoxaline-5-carbonitrile] was tested, and the IC50 was 57 nM.
